Results: patent US8895054B2, “Methods for joint lubrication and cartilage wear prevention making use of glycerophospholipids” (Technion Research and Development Foundation Ltd., priority 2006, dated 2014)
“And” between values parts separate entries of the source, which are not always exact repeats. Equal values may be shown once.

What was measured:
[1] = cited from earlier work; for Phase transition temperature (Tm): Table 1, SO to LD, phospholipid bilayers
[2] = LD phase (above Tm); cited from earlier work
[3] = Partial specific adiabatic compressibility of the lipid bilayer; assay type: physicochemical
Method: • (i) phospholipid (PL) concentration, using the modified Bartlett assay^37, 38; • (ii) size distribution, for liposomes under 1 μm by dynamic light scattering using an ALV-NIBS High Performance Particle Sizer (Langen, Germany) at a scattering angle of 173°; and for liposomes above 400 nm by light diffraction using a Beckman Coulter LS Particle Size Analyzer 13-320 (Fullerton, Calif.), equipped with polarization intensity differential scattering (PIDS) to provide a dynamic detection range from 40 nm to 2000 μm; • (iii) partial specific adiabatic compressibility, by calculation from the density of the liposome dispersion (using a DMA 5000 density meter, Anton Paar, Graz, Austria) and the velocity of an 5 MHz ultrasonic wave traveling through it (using a UCC-12 ultrasonic velocimeter, NDT Instruments, Jerusalem, Israel), as described by Garbuzenko et al.^39; and • (iv) structure, using scanning electron microscopy (SEM). Cartilage: Articular cartilage from healthy or osteoarthritis humans (aged 65 to 86 years) was obtained from femoral head fracture operations or total hip replacements. Tissue was classified as normal or pathological according to the visual diagnosis. For wear rate determination, only femoral heads with normal tissue were selected. Specimens were frozen at −20° C. until sample preparation in order to keep the mechanical properties close to those of live tissue. Pairs of cylindrical plugs, having 4 mm and 8 mm in diameter, each pair from the same region of the joint, were prepared. These cylindrical plugs, consisting of about 2 mm thick cartilage on top of about 8 mm long bone, were removed from the femoral head using a cork borer. The plugs were glued to holders through the bone part, using cyanoacrylate-based adhesive glue, leaving the cartilage projecting out of the holders. Thereafter, these plugs were refrozen at −20° C. until tested. Cartilage with completely intact and smooth surface was used. Friction and wear testing: Liposomes covering a wide range of sizes and concentrations, dispersed in HB, were screened as potential lubricants to reduce friction and wear between two discs of human cartilage at 24° C. and 37° C. […] For the a qualitative evaluation of wear, the effect of friction tests on the concentration of total PL in cartilage, and on the structure of the cartilage surface was determined. PL extraction and quantification: Total PL were extracted from cartilage specimens before and after lubrication tests, using the Bligh and Dyer extraction procedure^41, 42. […]

[4] = system: joints of osteoarthritis patients; settings: injection into joints of osteoarthritis patients; cited from earlier work
[5] = system: human articular cartilage; test: Wear determination test (GAG content in wear debris); settings: added to ISF 1:1; after run-in period; 60 N (4.8 MPa)
Method: • (i) phospholipid (PL) concentration, using the modified Bartlett assay^37, 38; • (ii) size distribution, for liposomes under 1 μm by dynamic light scattering using an ALV-NIBS High Performance Particle Sizer (Langen, Germany) at a scattering angle of 173°; and for liposomes above 400 nm by light diffraction using a Beckman Coulter LS Particle Size Analyzer 13-320 (Fullerton, Calif.), equipped with polarization intensity differential scattering (PIDS) to provide a dynamic detection range from 40 nm to 2000 μm; • (iii) partial specific adiabatic compressibility, by calculation from the density of the liposome dispersion (using a DMA 5000 density meter, Anton Paar, Graz, Austria) and the velocity of an 5 MHz ultrasonic wave traveling through it (using a UCC-12 ultrasonic velocimeter, NDT Instruments, Jerusalem, Israel), as described by Garbuzenko et al.^39; and • (iv) structure, using scanning electron microscopy (SEM). […] For the a qualitative evaluation of wear, the effect of friction tests on the concentration of total PL in cartilage, and on the structure of the cartilage surface was determined. PL extraction and quantification: Total PL were extracted from cartilage specimens before and after lubrication tests, using the Bligh and Dyer extraction procedure^41, 42. […]

Compound | SO-to-LD phase transition temperature, Tm [1] | Phase transition temperature (Tm) [1] [°C] | other results
CCCCCCCCCCCCCCC(=O)OC[C@H](COP(=O)([O-])OCC[N+](C)(C)C)OC(=O)CCCCCCCCCCCCCC [1,2-dipentadecanoyl-sn-glycero-3-phosphocoline] | 33.0 °C | – | –
CCCCCCCCCCCCCC(=O)OC[C@H](COP(=O)([O-])OCC[N+](C)(C)C)OC(=O)CCCCCCCCCCCCC [DMPC, 1,2-dimyristoyl-sn-glycero-3-phosphocholine] | 23.2 °C and 23 °C | 23.2 | water molecules per headgroup [2]: ~9.7 water molecules per headgroup; partial specific adiabatic compressibility, K ([3]; 24° C.): 46.4 ×10^−6 mL/(g-atm); partial specific adiabatic compressibility, K ([3]; 37° C.): 50.7 ×10^−6 mL/(g-atm)
CCCCCCCCCCCCCC(=O)OCC(COP(=O)(O)OCC(O)CO)OC(=O)CCCCCCCCCCCCC (stereo not drawn) [DMPG] | 23 °C | – | –
CCCCCCCC/C=C\CCCCCCCC(=O)OC[C@H](COP(=O)([O-])OCC[N+](C)(C)C)OC(=O)CCCCCCC/C=C\CCCCCCCC [DOPC, 1,2-dioleoyl-sn-glycero-3-phosphocholine] | – | −21 | –
CCCCCCCCCCCCCCCC(=O)OC[C@H](COP(=O)([O-])OCC[N+](C)(C)C)OC(=O)CCCCCCCCCCCCCCC [DPPC, 1,2-dipalmitoyl-sn-glycero-3-phosphocholine] | 41.4 °C | 41.4 | duration of mobility improvement [4]: up to 14 weeks; side effects [4]: without major side effects; water molecules per headgroup [2]: ~9.7 water molecules per headgroup; partial specific adiabatic compressibility, K ([3]; 24° C.): 28.0 ×10^−6 mL/(g-atm); partial specific adiabatic compressibility, K ([3]; 37° C.): 31.2 ×10^−6 mL/(g-atm)
CCCCCCCCCCCCCCCC(=O)OCC(COP(=O)(O)OCC(O)CO)OC(=O)CCCCCCCCCCCCCCC (stereo not drawn) [DPPG] | 41.4 °C | – | –
CCCCCCCCCCCCC/C=C/[C@@H](O)[C@H](COP(=O)([O-])OCC[N+](C)(C)C)NC(=O)CCCCCCCCCCCCCCC [N-palmitoyl SM] | 41.4 °C and 41.0 °C | – | –
hyaluronic acid [HA] | – | – | reduction of constant wear rate compared with ISF alone [5]: ~10%
